Key:
Test in all cases: KINOMEscan
Format in all cases: binding
Conditions in all cases: read-out: Remaining enzyme activity
IRAK1 = biological target: T1, IRAK1 (Homo sapiens, UniProt P51617)
T1 construct: purchased Ambit (DiscoverX) KINOMEscan; Cerep
Method: (§1) The KINOMEscan was carried out by Ambit (San Diego, USA) according to a previously established protocol. The experiment was based on a competition binding assay that quantitatively measures the ability of a compound to compete with an immobilized, active-site directed ligand. The assay is performed by combining three components: DNA-tagged kinase; immobilized ligand; and a test compound. The ability of the test compound to compete with the immobilized ligand is measured via quantitative PCR of the DNA tag.
(§2) For most assays, kinase-tagged T7 phage strains were grown in parallel in 24-well blocks in an Escherichia coli host derived from the BL21 strain. E. coli were grown to log-phase and infected with T7 phage from a frozen stock and incubated with shaking at 32 °C until lysis (90–150 min). The lysates were centrifuged (6,000g) and filtered (0.2 μm) to remove cell debris. The remaining kinases were produced in HEK-293 cells (Sigma Aldrich, catalogue number: 85120602) and subsequently tagged with DNA for quantitative PCR detection. […] The liganded beads were blocked with excess biotin and washed with blocking buffer (SeaBlock (Pierce), 1% bovine serum albumin, 0.05% Tween 20 and 1 mM dithiothreitol) to remove unbound ligand and to reduce non-specific phage binding. […] SC81458 was prepared as 40x stock in 100% DMSO and directly diluted into the assay to a final concentration of 10 μM. All reactions were performed in polypropylene 384-well plates in a final volume of 0.04 ml. […] The kinase concentration in the eluates was measured by quantitative PCR.

CAMKK2 = biological target: T2, CAMKK2 (Homo sapiens, UniProt Q96RR4)
T2 construct: purchased Ambit (DiscoverX) KINOMEscan; Cerep
Method: as §1, §2

[1] = biological target: T3, RPS6KA2(Kin.Dom.2-C-term) (Homo sapiens, UniProt Q15349)
T3 construct: RPS6KA2(Kin.Dom.2-C-term); purchased Ambit (DiscoverX) KINOMEscan; Cerep
Method: as §1, §2

STK33 = biological target: T4, STK33 (Homo sapiens, UniProt Q9BYT3)
T4 construct: purchased Ambit (DiscoverX) KINOMEscan; Cerep
Method: as §1, §2

PRKG1 = biological target: T5, PRKG1 (Homo sapiens, UniProt Q13976)
T5 construct: purchased Ambit (DiscoverX) KINOMEscan; Cerep
Method: as §1, §2

PRKD3 = biological target: T6, PRKD3 (Homo sapiens, UniProt O94806)
T6 construct: purchased Ambit (DiscoverX) KINOMEscan; Cerep
Method: as §1, §2

ACVRL1 = biological target: T7, ACVRL1 (Homo sapiens, UniProt P37023)
T7 construct: purchased Ambit (DiscoverX) KINOMEscan; Cerep
Method: as §1, §2

CLK3 = biological target: T8, CLK3 (Homo sapiens, UniProt P49761)
T8 construct: purchased Ambit (DiscoverX) KINOMEscan; Cerep
Method: as §1, §2

BMPR1b = biological target: T9, BMPR1b (Homo sapiens, UniProt O00238)
T9 construct: purchased Ambit (DiscoverX) KINOMEscan; Cerep
Method: as §1, §2

CDK9 = biological target: T10, CDK9 (Homo sapiens, UniProt P50750)
T10 construct: purchased Ambit (DiscoverX) KINOMEscan; Cerep
Method: as §1, §2

YANK2 = biological target: T11, YANK2 (Homo sapiens, UniProt Q9NY57)
T11 construct: purchased Ambit (DiscoverX) KINOMEscan; Cerep
Method: as §1, §2

ABL1(E255K) = biological target: T12, ABL1(E255K) (Homo sapiens, UniProt P00519, E255K)
T12 construct: purchased Ambit (DiscoverX) KINOMEscan; Cerep
Method: as §1, §2

CAMK1d = biological target: T13, CAMK1d (Homo sapiens, UniProt Q8IU85)
T13 construct: purchased Ambit (DiscoverX) KINOMEscan; Cerep
Method: as §1, §2

EPHA1 = biological target: T14, EPHA1 (Homo sapiens, UniProt P21709)
T14 construct: purchased Ambit (DiscoverX) KINOMEscan; Cerep
Method: as §1, §2

PRKCQ = biological target: T15, PRKCQ (Homo sapiens, UniProt Q04759)
T15 construct: purchased Ambit (DiscoverX) KINOMEscan; Cerep
Method: as §1, §2

CSNK1g2 = biological target: T16, CSNK1g2 (Homo sapiens, UniProt P78368)
T16 construct: purchased Ambit (DiscoverX) KINOMEscan; Cerep
Method: as §1, §2

ACVR2a = biological target: T17, ACVR2a (Homo sapiens, UniProt P27037)
T17 construct: purchased Ambit (DiscoverX) KINOMEscan; Cerep
Method: as §1, §2

PIP5K1a = biological target: T18, PIP5K1a (Homo sapiens, UniProt Q99755)
T18 construct: purchased Ambit (DiscoverX) KINOMEscan; Cerep
Method: as §1, §2

SIK = biological target: T19, SIK (Homo sapiens, UniProt P57059)
T19 construct: purchased Ambit (DiscoverX) KINOMEscan; Cerep
Method: as §1, §2

FGFR3 = biological target: T20, FGFR3 (Homo sapiens, UniProt P22607)
T20 construct: purchased Ambit (DiscoverX) KINOMEscan; Cerep
Method: as §1, §2

DCAMKL1 = biological target: T21, DCAMKL1 (Homo sapiens, UniProt O15075)
T21 construct: purchased Ambit (DiscoverX) KINOMEscan; Cerep
Method: as §1, §2

MINK = biological target: T22, MINK (Homo sapiens, UniProt Q8N4C8)
T22 construct: purchased Ambit (DiscoverX) KINOMEscan; Cerep
Method: as §1, §2

PRKCD = biological target: T23, PRKCD (Homo sapiens, UniProt Q05655)
T23 construct: purchased Ambit (DiscoverX) KINOMEscan; Cerep
Method: as §1, §2

MAP3K4 = biological target: T24, MAP3K4 (Homo sapiens, UniProt Q9Y6R4)
T24 construct: purchased Ambit (DiscoverX) KINOMEscan; Cerep
Method: as §1, §2

PRP4 = biological target: T25, PRP4 (Homo sapiens, UniProt Q13523)
T25 construct: purchased Ambit (DiscoverX) KINOMEscan; Cerep
Method: as §1, §2

KIT(D816V) = biological target: T26, KIT(D816V) (Homo sapiens, UniProt P10721, D816V)
T26 construct: purchased Ambit (DiscoverX) KINOMEscan; Cerep
Method: as §1, §2

PIM2 = biological target: T27, PIM2 (Homo sapiens, UniProt Q9P1W9)
T27 construct: purchased Ambit (DiscoverX) KINOMEscan; Cerep
Method: as §1, §2

MAP3K1 = biological target: T28, MAP3K1 (Homo sapiens, UniProt Q13233)
T28 construct: purchased Ambit (DiscoverX) KINOMEscan; Cerep
Method: as §1, §2

ABL1(F317I) = biological target: T29, ABL1(F317I) (Homo sapiens, UniProt P00519, F317I)
T29 construct: purchased Ambit (DiscoverX) KINOMEscan; Cerep
Method: as §1, §2

[2] = biological target: T30, JAK1(JH1domain-catalytic) (Homo sapiens, UniProt P23458)
T30 construct: JAK1(JH1domain-catalytic); purchased Ambit (DiscoverX) KINOMEscan; Cerep
Method: as §1, §2

ULK1 = biological target: T31, ULK1 (Homo sapiens, UniProt O75385)
T31 construct: purchased Ambit (DiscoverX) KINOMEscan; Cerep
Method: as §1, §2

[3] = biological target: T32, RPS6KA6(Kin.Dom.2-C-term) (Homo sapiens, UniProt Q9UK32)
T32 construct: RPS6KA6(Kin.Dom.2-C-term); purchased Ambit (DiscoverX) KINOMEscan; Cerep
Method: as §1, §2

T24 sequence (Q9Y6R4 whole entry): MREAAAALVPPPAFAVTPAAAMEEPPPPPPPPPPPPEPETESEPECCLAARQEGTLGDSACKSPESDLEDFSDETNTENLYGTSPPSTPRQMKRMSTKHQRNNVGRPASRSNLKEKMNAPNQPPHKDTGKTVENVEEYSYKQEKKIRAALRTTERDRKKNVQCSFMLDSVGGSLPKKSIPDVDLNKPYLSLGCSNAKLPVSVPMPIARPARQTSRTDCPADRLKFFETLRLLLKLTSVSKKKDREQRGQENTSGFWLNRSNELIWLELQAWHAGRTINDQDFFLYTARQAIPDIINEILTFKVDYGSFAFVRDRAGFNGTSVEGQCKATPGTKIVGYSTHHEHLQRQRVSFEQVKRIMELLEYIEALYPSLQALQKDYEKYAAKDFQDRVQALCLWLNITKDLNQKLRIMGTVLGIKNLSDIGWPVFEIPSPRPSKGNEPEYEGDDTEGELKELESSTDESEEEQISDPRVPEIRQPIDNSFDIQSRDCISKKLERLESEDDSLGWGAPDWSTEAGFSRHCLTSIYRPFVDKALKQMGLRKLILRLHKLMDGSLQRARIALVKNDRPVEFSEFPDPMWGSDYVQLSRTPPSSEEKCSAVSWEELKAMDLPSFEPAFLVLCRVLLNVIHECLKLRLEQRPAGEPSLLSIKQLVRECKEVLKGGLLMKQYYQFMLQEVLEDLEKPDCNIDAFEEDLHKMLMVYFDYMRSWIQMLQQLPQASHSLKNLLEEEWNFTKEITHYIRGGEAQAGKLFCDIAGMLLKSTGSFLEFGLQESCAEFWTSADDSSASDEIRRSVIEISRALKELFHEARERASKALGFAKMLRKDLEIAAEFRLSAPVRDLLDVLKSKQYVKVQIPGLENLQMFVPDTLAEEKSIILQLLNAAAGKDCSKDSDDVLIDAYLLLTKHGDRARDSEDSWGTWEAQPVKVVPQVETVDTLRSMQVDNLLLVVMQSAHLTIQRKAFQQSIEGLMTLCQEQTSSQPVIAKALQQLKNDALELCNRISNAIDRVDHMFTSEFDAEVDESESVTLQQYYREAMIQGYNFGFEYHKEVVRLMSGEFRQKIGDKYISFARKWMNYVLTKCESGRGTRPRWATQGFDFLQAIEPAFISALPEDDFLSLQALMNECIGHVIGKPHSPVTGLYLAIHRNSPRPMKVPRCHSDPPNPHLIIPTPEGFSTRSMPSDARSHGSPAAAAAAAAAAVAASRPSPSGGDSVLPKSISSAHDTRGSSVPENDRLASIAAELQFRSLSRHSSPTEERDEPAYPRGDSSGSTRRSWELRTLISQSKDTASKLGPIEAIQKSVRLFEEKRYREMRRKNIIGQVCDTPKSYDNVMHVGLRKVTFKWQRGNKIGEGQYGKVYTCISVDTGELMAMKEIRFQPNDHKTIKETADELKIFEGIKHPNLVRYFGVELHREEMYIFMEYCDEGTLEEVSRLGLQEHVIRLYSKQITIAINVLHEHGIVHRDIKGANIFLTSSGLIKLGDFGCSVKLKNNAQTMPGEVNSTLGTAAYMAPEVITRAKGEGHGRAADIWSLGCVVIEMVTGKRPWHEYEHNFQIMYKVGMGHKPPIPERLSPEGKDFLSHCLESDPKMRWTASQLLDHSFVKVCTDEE
T2 sequence (Q96RR4 whole entry): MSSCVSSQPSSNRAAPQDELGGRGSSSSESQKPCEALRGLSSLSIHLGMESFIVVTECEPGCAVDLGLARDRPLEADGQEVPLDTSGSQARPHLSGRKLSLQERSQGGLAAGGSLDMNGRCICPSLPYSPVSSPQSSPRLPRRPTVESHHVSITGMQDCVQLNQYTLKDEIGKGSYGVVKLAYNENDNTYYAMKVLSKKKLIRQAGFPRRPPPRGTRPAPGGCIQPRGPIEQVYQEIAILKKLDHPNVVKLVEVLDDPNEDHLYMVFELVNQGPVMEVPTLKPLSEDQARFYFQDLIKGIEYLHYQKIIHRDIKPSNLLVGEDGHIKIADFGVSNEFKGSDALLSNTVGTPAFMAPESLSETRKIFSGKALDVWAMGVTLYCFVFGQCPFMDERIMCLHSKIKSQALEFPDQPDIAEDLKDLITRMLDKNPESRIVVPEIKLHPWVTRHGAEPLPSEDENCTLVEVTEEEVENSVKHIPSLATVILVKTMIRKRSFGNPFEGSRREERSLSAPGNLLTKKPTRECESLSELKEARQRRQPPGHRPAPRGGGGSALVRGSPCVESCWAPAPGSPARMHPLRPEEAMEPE
T26 sequence (P10721 26-976 D816V): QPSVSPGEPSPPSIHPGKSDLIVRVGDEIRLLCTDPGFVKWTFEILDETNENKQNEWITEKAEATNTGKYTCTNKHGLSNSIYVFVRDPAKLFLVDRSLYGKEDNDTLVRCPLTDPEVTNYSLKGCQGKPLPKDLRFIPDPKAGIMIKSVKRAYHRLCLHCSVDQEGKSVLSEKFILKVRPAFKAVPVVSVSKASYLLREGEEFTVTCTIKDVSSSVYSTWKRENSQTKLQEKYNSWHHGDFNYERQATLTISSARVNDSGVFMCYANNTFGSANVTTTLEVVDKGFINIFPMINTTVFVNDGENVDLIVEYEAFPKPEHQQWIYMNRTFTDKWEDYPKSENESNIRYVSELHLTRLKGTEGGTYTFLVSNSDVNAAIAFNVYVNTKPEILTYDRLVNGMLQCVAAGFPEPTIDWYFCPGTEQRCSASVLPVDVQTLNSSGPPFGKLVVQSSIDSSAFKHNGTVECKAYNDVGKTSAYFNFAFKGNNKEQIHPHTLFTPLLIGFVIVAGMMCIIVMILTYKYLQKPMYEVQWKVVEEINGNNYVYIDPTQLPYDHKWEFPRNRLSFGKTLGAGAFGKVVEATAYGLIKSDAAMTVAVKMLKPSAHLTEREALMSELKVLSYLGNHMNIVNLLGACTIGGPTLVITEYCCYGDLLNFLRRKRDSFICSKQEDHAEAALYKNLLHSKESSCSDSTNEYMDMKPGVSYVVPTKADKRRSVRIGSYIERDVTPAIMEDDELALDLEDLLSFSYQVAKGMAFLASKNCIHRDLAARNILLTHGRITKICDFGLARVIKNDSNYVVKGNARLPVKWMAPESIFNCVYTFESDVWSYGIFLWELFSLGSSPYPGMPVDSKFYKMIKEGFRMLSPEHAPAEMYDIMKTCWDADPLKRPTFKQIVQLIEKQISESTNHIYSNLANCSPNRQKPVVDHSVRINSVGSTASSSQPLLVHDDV
T30 sequence (P23458 875-1154 limits assumed): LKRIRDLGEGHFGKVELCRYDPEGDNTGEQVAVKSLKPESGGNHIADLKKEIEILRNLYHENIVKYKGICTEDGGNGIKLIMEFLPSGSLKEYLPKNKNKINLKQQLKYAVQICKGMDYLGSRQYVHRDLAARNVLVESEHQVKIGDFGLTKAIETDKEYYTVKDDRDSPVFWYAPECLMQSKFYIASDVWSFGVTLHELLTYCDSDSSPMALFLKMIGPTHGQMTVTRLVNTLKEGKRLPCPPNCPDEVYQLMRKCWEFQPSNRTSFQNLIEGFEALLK
T27 sequence (Q9P1W9 whole entry): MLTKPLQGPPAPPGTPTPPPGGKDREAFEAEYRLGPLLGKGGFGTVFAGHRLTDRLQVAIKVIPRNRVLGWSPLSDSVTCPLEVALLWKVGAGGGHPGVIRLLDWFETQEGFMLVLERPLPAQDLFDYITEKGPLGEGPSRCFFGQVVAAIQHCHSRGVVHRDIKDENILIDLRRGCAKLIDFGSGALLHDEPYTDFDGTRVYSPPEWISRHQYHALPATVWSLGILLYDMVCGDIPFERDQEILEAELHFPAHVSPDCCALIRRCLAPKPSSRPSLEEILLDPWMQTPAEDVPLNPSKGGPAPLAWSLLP
T3 sequence (Q15349 415-672 limits assumed): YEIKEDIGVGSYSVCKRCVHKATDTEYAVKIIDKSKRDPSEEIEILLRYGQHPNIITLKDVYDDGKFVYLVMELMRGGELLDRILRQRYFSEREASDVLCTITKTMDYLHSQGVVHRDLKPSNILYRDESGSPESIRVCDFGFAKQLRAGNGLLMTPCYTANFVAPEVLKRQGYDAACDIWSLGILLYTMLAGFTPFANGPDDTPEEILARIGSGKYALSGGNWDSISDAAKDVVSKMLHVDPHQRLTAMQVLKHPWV
T31 sequence (O75385 whole entry): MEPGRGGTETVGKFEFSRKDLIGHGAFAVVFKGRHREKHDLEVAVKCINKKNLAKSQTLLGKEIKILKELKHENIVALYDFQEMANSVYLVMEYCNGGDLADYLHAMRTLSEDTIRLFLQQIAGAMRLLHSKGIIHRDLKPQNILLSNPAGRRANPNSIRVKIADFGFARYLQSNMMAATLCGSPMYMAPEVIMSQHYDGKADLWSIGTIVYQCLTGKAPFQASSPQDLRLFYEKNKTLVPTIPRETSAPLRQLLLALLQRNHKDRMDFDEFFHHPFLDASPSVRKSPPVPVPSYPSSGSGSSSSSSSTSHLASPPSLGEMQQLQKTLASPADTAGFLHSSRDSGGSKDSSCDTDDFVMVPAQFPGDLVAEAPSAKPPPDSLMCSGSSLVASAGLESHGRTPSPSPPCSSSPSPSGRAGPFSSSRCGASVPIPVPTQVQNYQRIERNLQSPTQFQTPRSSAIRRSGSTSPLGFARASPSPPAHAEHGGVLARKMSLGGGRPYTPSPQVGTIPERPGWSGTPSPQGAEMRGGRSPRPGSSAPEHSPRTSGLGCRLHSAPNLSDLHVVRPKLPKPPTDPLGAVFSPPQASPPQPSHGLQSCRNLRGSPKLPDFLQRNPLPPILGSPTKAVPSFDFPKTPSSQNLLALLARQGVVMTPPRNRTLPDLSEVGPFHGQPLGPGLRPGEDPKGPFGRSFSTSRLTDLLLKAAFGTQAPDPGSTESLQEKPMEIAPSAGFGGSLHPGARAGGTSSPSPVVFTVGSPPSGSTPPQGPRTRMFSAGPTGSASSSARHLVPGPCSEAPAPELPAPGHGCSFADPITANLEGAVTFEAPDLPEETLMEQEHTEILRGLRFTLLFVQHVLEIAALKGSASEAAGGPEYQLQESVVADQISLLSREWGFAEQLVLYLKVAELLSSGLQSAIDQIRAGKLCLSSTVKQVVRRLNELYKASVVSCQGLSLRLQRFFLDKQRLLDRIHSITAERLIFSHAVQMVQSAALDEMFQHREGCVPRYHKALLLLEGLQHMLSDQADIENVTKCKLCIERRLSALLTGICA

SMILES: CCCCN1CCN(C(=N)c2cccc(NC(=O)Nc3ccc(S(=O)(=O)NCc4ccc(S(N)(=O)=O)cc4)cc3)c2)CC1 [SC81458, 4-(3-(3-((4-butylpiperazin-1-yl)(imino)methyl)phenyl)ureido)-N-(4-sulfamoylbenzyl) benzenesulfonamide]
- remaining binding at 10 µM (IRAK1): 95%
- remaining binding at 10 µM (CAMKK2): 100%
- remaining binding at 10 µM [1]: 100%
- remaining binding at 10 µM (STK33): 100%
- remaining binding at 10 µM (PRKG1): 86%
- remaining binding at 10 µM (PRKD3): 100%
- remaining binding at 10 µM (ACVRL1): 72%
- remaining binding at 10 µM (CLK3): 100%
- remaining binding at 10 µM (BMPR1b): 85%
- remaining binding at 10 µM (CDK9): 100%
- remaining binding at 10 µM (YANK2): 99%
- remaining binding at 10 µM (ABL1(E255K)): 100%
- remaining binding at 10 µM (CAMK1d): 91%
- remaining binding at 10 µM (EPHA1): 91%
- remaining binding at 10 µM (PRKCQ): 100%
- remaining binding at 10 µM (CSNK1g2): 100%
- remaining binding at 10 µM (ACVR2a): 100%
- remaining binding at 10 µM (PIP5K1a): 100%
- remaining binding at 10 µM (SIK): 97%
- remaining binding at 10 µM (FGFR3): 100%
- remaining binding at 10 µM (DCAMKL1): 100%
- remaining binding at 10 µM (MINK): 95%
- remaining binding at 10 µM (PRKCD): 100%
- remaining binding at 10 µM (MAP3K4): 100%
- remaining binding at 10 µM (PRP4): 100%
- remaining binding at 10 µM (KIT(D816V)): 100%
- remaining binding at 10 µM (PIM2): 87%
- remaining binding at 10 µM (MAP3K1): 100%
- remaining binding at 10 µM (ABL1(F317I)): 100%
- remaining binding at 10 µM [2]: 87%
- remaining binding at 10 µM (ULK1): 100%
- remaining binding at 10 µM [3]: 100%

Source: PMC5290327, “SC83288 is a clinical development candidate for the treatment of severe malaria” (Nature Communications, 2017)
